Measured values: US7629172B2, “Entrapped binding protein as biosensors” (Becton, Dickinson and Company, priority 2002, dated 2009)

Experiments:
[1] = Change in fluorescence of reporter-labeled GGBP mutants in solution on glucose addition; assay type: biochemical; settings: GGBP-H6 NBD
Protocol: Labeled mutated maltose binding protein S337C MBP with fluorophore reporter probe NBD used herein in accordance with the procedure set forth by Cass, A. et al. (Anal. Chem. 1994, 66, 3840-3847). Fluorescence emission spectra of mutated, labeled protein was measured using an SLM Aminco fluorimeter (Ontario, Canada) with slit settings of 8 and 4 for excitation and settings of 5 and 5 on the MC250 emission monochromator to compare the ligand-binding performance of the entrapped fluorophore-labeled proteins in various matrixes to the performance of the same proteins in solution. The initial fluorescence emission intensity is defined as Io. The relative ratio of the emission intensity maxima in the presence of the protein's respective ligand (If) to the ligand's absence (Io) is defined as ΔF.
This example describes generically the labeling of binding protein with reporter probe. An aliquot of mutant GGBP containing cysteine (4.0 nmol) in PBS was treated with 2 mM dithiothreitol (5 μL, 10 nmol) for 30 min. A stock solution of N,N′-dimethyl-N-(iodoacetyl)-N′-(7-nitrobenz-2-oxa-1,3-diazol-4-yl)ethylenediamine (IANBD amide, 0.5 mg) was prepared in DMSO (100 μL, 11.9 mM) and 3.36 μL (40 nmol) was added to the protein. The reaction proceeded at room temperature for 4 h on a Dynal rotamix in the dark. The labeled protein was purified by gel filtration on a NAP-5 column (Amersham Pharmacia). The labeling rations were determined using an estimated extinction coefficient (50 mM^−1 cm^−1) for GGBP that was calculated in GeneWorks 2.45 (IntelliGenetics), ε478 (IANBD amide)=25 mM^−1cm^−1), and a measurement of O.D. for a standard solution of IANBD amide at 280 nm and 478 nm. The dye concentration in the protein was calculated as […]. The absorbance of protein at 280 nm was calculated as Aprot(280)=Atotal(280)−Adye(280), where Adye(280)=A478×(A280/A478)standard. The concentration of protein was then […].

[2] = Binding constant (Kd) by titration of glucose into labeled protein solution
Protocol: (§1) Binding constants were determined by titration of increasing concentrations of glucose into a protein solution with mixing following each addition of glucose. Slit settings were the same as listed above. The Kd was determined from the following relationships as adapted from Pisarchick and Thompson (1990):
where F is fluorescence intensity, Finf is fluorescence at infinity, F0 is fluorescence at zero glucose, and x is the free concentration of glucose ([Glc]free) as determined by the relationship:
where [Glc]tot and [Prot]tot are the total concentrations of glucose and protein, respectively.

[3] = Kd of labeled GGBP entrapped in optimized GMSC sol-gel; assay type: binding; settings: protein entrapped in optimized sol-gel formulation
Protocol: as §1
Entrapment Of Binding Proteins In GMSC Sol-Gels Containing Functionalized Silicone Additives (FSA) and Polymers. This example describes the addition of polymer and organic polyol additives to optimize the GMSC sol-gels for entrapping binding proteins to both maintain and enhance their spectral properties upon ligand binding. The binding proteins were labeled with a fluorophore (as described in example 3). The protein solutions were added during the final hydrolysis/gelling step described previously to produce final concentrations of 2-4 μM protein within the sol-gel. […] Polymer additives were evaluated in amounts between 0 to about 30 wt. Functionalized silicone additives (FSA) were evaluated as additives to the GMSC sol-gels in amounts from 0 to about 0.6% mole ratio. […] Fluorescence emission was measured with a Varian Cary Eclipse scanning fluorometer with microwell plate adapter (Varian Instruments, Victoria, Australia). Excitation was at 475 nm and emission recorded from 500 to 600 nm, typically monitoring emission maximum peak fluorescence. […]

[4] = ΔF of labeled GGBP entrapped in optimized GMSC sol-gel (96 well microplate); assay type: biochemical
Protocol: Entrapment Of Binding Proteins In GMSC Sol-Gels Containing Functionalized Silicone Additives (FSA) and Polymers. This example describes the addition of polymer and organic polyol additives to optimize the GMSC sol-gels for entrapping binding proteins to both maintain and enhance their spectral properties upon ligand binding. The binding proteins were labeled with a fluorophore (as described in example 3). The protein solutions were added during the final hydrolysis/gelling step described previously to produce final concentrations of 2-4 μM protein within the sol-gel. The polymer additives and FSA's were obtained from Sigma-Aldrich Chemicals (St. Louis, Mo.). Polymer additives were evaluated in amounts between 0 to about 30 wt. Functionalized silicone additives (FSA) were evaluated as additives to the GMSC sol-gels in amounts from 0 to about 0.6% mole ratio. Thus, rotary evaporation of the GMSC reagent to remove methanol from its storage solution was followed by reconstitution in water in a 1:1 ratio by weight. […] Fluorescence emission was measured with a Varian Cary Eclipse scanning fluorometer with microwell plate adapter (Varian Instruments, Victoria, Australia). Excitation was at 475 nm and emission recorded from 500 to 600 nm, typically monitoring emission maximum peak fluorescence. […]

[5] = GGBP L238C/A213C in dialysis membrane on fiber optic, reversibility of signal; assay type: biochemical; settings: cycles between PBS buffer and 2 mM, 20 mM glucose; emission 521 nm; FIG. 4
Protocol: This example describes the immobilization of a biosensor of the instant invention into a dialysis membrane matrix and the ability of the matrix to provide reversible and continuous readings. Using a Varian Eclipse fluorimeter with a fiber optic attachment, GGBP L238C/A213C protein (2 μM in PBS buffer) entrapped within a dialysis membrane having a molecular cut-off of 3500 Daltons affixed to the distal end of the fiber. Solutions were prepared containing PBS buffer, 2 mM, and 20 mM glucose in PBS buffer. With the probe in PBS solution, readings were recorded at 0.02 seconds intervals of the emission wavelength 521 nm, followed by insertion of the fiber into the glucose solutions.

[6] = ΔF of H152 GGBP-H6 NBD entrapped in sol-gel matrixes vs solution; assay type: biochemical; settings: ratio If/Io, matrix containing H152 GGBP-H6 NBD
[7] = GGBP H152C entrapped in UV cross-linked SbQ-PVA hydrogel, glucose challenge; assay type: biochemical
Protocol: This example describes the entrapment of GGBP H152C in UV cross-linked hydrogel matrix and the effect of the matrix on the fluorescence change and binding affinity. In this experiment SbQ-PVA from Polysciences Inc. was added 100 ul of PBS buffer and mixed for one hour to mix in a rotary mixer. 80 ul of this solution was then mixed with 20 ul of labeled protein. Final protein concentration was spectroscopically determined to be 0.15 mg/ml. After mixing, aliquiots were dispensed into 96-well plates and dried in a chamber maintained at 20% humidity for 12 h followed by curing with UV light. Wells containing protein encapsulated in matrix were challenge with 2 ul of 10 mM glucose and compared to protein solution without matrix having equivalent protein loading.

[8] = from 0 to 1 mM Glc at 0.5 μM [NBD]
[9] = GGBP-H6 NBD, solution, measured at 0.1 μM [dye], read-out: Solution Kd
[10] = protein in solution, read-out: Kd (mM) [solution value]

In the case of “K11C: GGBP-H6 NBD mutant, cysteine substituted for lysine at position 11”, the “Δ F(%)” value [1, 8] is reported as 10%.

“V19C: GGBP-H6 NBD mutant, cysteine substituted for valine at position 19” showed a Kd [2, 9] of 0.1 µM.

In the case of E149C, A213R: GGBP-H6 NBD double mutant, the Kd [2, 9] is reported as 1000 µM.

With “K113C: GGBP-H6 NBD mutant, cysteine substituted for lysine at position 113” the “Δ F(%)” value [1, 8] was 15%.

“wild type: wild type E. coli galactose/glucose binding protein (GGBP-H6), intrinsic fluorescence [reference compound]” showed a Kd [2, 9] of 0.2 µM.

Work on “G74C: GGBP-H6 NBD mutant, cysteine substituted for glycine at position 74” yielded a Kd [2, 9] of 0.9 µM.

For “D287C: GGBP-H6 NBD mutant, cysteine substituted for aspartic acid at position 287”, the “Δ F(%)” value [1, 8] was 4%.

“R292C: GGBP-H6 NBD mutant, cysteine substituted for arginine at position 292” gave a Kd [2, 9] of 0.8 µM.

For “E149C, A213S, L238S: GGBP-H6 NBD triple mutant”, the “Δ F(%)” value [1, 8] was 480% and the Kd [2, 9] was 470 µM.

For H152C, A213S: GGBP-H6 NBD double mutant, the “Δ F(%)” value [1, 8] was 100% and the Kd [2, 9] was 160 µM.

In the case of “E149C, A213R, L238S: GGBP-H6 NBD triple mutant”, the “Δ F(%)” value [1, 8] is reported as 500% and the Kd [2, 9] is reported as 35000 µM.

With E149C, N256S: GGBP-H6 NBD double mutant the “Δ F(%)” value [1, 8] was 1%.

For “K137C: GGBP-H6 NBD mutant, cysteine substituted for lysine at position 137”, the Kd [2, 9] was 0.04 µM.

In the case of “A213C, L238C: GGBP-H6 NBD double mutant, cysteines at positions 213 and 238”, the Kd [3] is reported as 2200 µM, the “Δ F(%)” value [1, 8] is reported as 24% and the “Δ F(%)” value ([1]; measured from 0 to 100 mM Glc) is reported as 67%. The “ΔF (enhancement vs. solution)” value ([4]; sugar challenge 100 mM glucose) was 2.36x, the reversibility of signal [5] was “return of initial signal” and the Kd [2, 9] was 6000 µM. For the same molecule, the Kd [2, 10] was 6000 µM.

In the case of “L238C: GGBP-H6 NBD mutant, cysteine substituted for leucine at position 238”, the “Δ F(%)” value ([1]; measured from 0 to 100 mM Glc) is reported as “+3%”.

“Y107C: GGBP-H6 NBD mutant, cysteine substituted for tyrosine at position 107” gave a Kd [2, 9] of 1 µM.

With “E149C: GGBP-H6 NBD mutant, cysteine substituted for glutamic acid at position 149” the “Δ F(%)” value [1, 8] was 300% and the Kd [2, 9] was 0.2 µM.

For “D14C: GGBP-H6 NBD mutant, cysteine substituted for aspartic acid at position 14”, the “Δ F(%)” value [1, 8] was 1%.

In the case of E149C, L238S: GGBP-H6 NBD double mutant, the Kd [2, 9] is reported as 80 µM.

With S112C, L238S: GGBP-H6 NBD double mutant the “Δ F(%)” value [1, 8] was 6%.

For “H 152 C GGBP-NBD: glucose/galactose binding protein with cysteine at position 152, His6 tag, labeled with NBD”, the Kd [3] was 360 µM, the “ΔF (10 mM Glucose)” value [6] was 1.53 and the “ΔF (enhancement vs. solution)” value ([4]; sugar challenge 10 mM glucose) was 2.93x. The “Kd of the entrapped protein” value ([7]; SbQ-PVA UV cross-linked hydrogel) was “comparable to that obtained in solution”, the “response to the analyte (fluorescence) vs solution” value ([7]; SbQ-PVA hydrogel, 10 mM glucose challenge, FIG. 3) was “equivalent to that obtained in solution” and the Kd [2, 10] was 70 µM.

In the case of “N43C: GGBP-H6 NBD mutant, cysteine substituted for asparagine at position 43”, the “Δ F(%)” value [1, 8] is reported as 40% and the Kd [2, 9] is reported as 0.2 µM.

B1: E149C, M182C, A213C, L238S: GGBP-H6 NBD mutant with four amino acid substitutions (protein, UniProt P0AEE5 24-332, looked up, variant E149C M182C A213C L238S)
D-galactose/methyl-galactoside …: ADTRIGVTIYKYDDNFMSVVRKAIEQDAKAAPDVQLLMNDSQNDQSKQNDQIDVLLAKGVKALAINLVDPAAAGTVIEKARGQNVPVVFFNKEPSRKALDSYDKAYYVGTDSKESGIIQGDLIAKHWAANQGWDLNKDGQIQFVLLKGCPGHPDAEARTTYVIKELNDKGIKTEQLQLDTACWDTAQAKDKMDAWLSGPNANKIEVVIANNDCMAMGAVEALKAHNKSSIPVFGVDASPEALALVKSGALAGTVLNDANNQAKATFDLAKNLADGKGAADGTNWKIDNKVVRVPYVGVDKDNLAEFSKK
modifications: His6 tag, NBD fluorophore label
notes: GGBP-H6 NBD mutant with four amino acid substitutions
In the case of B1, the “Δ F(%)” value [1, 8] is reported as 200%.
